This assay has as its target T1, Human IP6K1 (Homo sapiens, UniProt Q92551).
T1 construct: GST (N, cleaved yes); made in house; host or cells: C43 E. coli, pGEX-6P-2
Put plainly: IP6K1 high-throughput screen of the Sigma LOPAC (ADP-Glo Max, single point).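 Also: final compound concentration 10µM in 5% DMSO.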 The class given is biochemical. On the technique in general: In ADP-Glo the light output rises with the ADP produced.

The mark [1] stands for this setting: LOPAC single-point screen, ADP-Glo Max raw signal per well.
[2] abbreviates: LOPAC single-point screen, Z-score against plate average and StDev.
Where [3] appears, read: LOPAC single-point screen, Z-score from raw signal with plate average and StDev.
[4] abbreviates: Sigma LOPAC single-point screen, ADP-Glo Max raw signal per well.
The mark [5] stands for this setting: Sigma LOPAC single-point screen, Z-score from plate average and StDev.
[6] abbreviates: LOPAC single-point screen, ADP-Glo Max luminescence raw signal per well.
[7] abbreviates: LOPAC single-point screen, Z-score from plate average and StDev.
[8] abbreviates: LOPAC single-point screen, Z-score relative to plate average and StDev.

These results are taken from PMC5706701, “Development of a homogenous high-throughput assay for inositol hexakisphosphate kinase 1 activity” (PLoS ONE, 2017).

Structures are written as SMILES. Structures can show the parent of a compound that is named as a salt. Where two headings read alike, the source gives them in different places.

T1 sequence (Q92551 whole entry): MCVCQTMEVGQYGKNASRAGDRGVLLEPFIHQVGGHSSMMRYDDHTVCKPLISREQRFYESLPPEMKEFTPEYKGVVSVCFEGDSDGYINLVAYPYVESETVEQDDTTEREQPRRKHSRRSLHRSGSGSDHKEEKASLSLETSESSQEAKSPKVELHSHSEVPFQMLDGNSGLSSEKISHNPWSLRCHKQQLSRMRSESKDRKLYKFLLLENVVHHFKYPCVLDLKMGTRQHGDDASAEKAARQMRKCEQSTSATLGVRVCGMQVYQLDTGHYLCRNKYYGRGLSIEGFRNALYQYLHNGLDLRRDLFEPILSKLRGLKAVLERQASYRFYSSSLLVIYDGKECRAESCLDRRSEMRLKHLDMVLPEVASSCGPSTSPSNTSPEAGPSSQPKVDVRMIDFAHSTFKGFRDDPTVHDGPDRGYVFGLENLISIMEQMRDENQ

Take `Br.CCSC(=N)N` [S-Ethylisothiourea hydrobromide]: the “Raw Signal” value under setting [1] is listed as 55596. The Z-score under setting [2] turned out to be 0.08712.
Take `O=C(O)c1cc(=O)c2ccccc2[nH]1` [Kynurenic acid]: under setting [1], the “Raw Signal” value is listed as 53243. Also, under setting [3], the Z-score was -0.1933.
As to `Nc1ncnc2c1ncn2C1CCCC1` [9-cyclopentyladenine], the “Raw Signal” value under setting [4] is recorded as 60166. Moreover, the Z-score under setting [5] was 0.3968.
On to `NC(N)=Nc1ccc2[nH]c3c(c2c1)C[C@@]1(O)[C@H]2Cc4ccc(O)c5c4[C@@]1(CCN2CC1CC1)[C@H]3O5.O=C(O)C(F)(F)F.O=C(O)C(F)(F)F`, for which, under setting [6], the “Raw Signal” value is listed as 65830. Under setting [7], this molecule registered a Z-score of 2.166.
For the molecule `Cl.NC[C@@H]1O[C@H](C23CC4CC(CC(C4)C2)C3)Cc2c1ccc(O)c2O` [A-77636 hydrochloride], under setting [1], the “Raw Signal” value stood at 56453. The molecule also returned a Z-score under setting [3] of -0.2572.
The matching figures for `COC(=O)N1CCN(C(=O)Cc2ccc(Cl)c(Cl)c2)C(CN2CCCC2)C1.O=C(O)/C=C/C(=O)O` (centres unmarked) [GR-89696 fumarate]: 54440 and -0.1477.
As to `CCCn1c(=O)c2[nH]c(-c3ccc(OCC(=O)Nc4ccc(C#N)cc4)cc3)nc2n(CCC)c1=O` [MRS 1754], under setting [6], the “Raw Signal” value was determined as 66198. Under setting [7], this molecule gave a Z-score of 1.983.
Regarding `CC(CN1c2ccccc2Sc2ccccc21)N(C)C` (centres unmarked) [Promethazine hydrochloride], under setting [4], the “Raw Signal” value came out at 57662. The Z-score under setting [5] turned out to be 0.5492.
On to `CN(C)CCCN1c2ccccc2CCc2ccccc21` [Imipramine hydrochloride], for which the “Raw Signal” value under setting [1] is recorded as 53704. This molecule displayed a Z-score under setting [3] of -0.1159.
As to `CSc1ccc2c(c1)C(N1CCN(C)CC1)Cc1ccccc1S2` (centres unmarked) [Methiothepin mesylate], under setting [4], the “Raw Signal” value stood at 58558. This molecule showed a Z-score under setting [5] of 0.6997.
Consider `NC(CCCCCP(=O)(O)O)C(=O)O` (racemic) [(±)-2-Amino-7-phosphonoheptanoic acid], for which the “Raw Signal” value is on record as 66212 and the Z-score turned out to be 1.462.
As to `NCCc1c[nH]c2ccc(C(N)=O)cc12.O=C(O)/C=C\C(=O)O` [5-Carboxamidotryptamine maleate], the “Raw Signal” value under setting [6] turned out to be 52599. The Z-score under setting [8] is recorded as -0.5215.
As to `Cl.N[C@@H](CCl)C(=O)O` [beta-Chloro-L-alanine hydrochloride], the “Raw Signal” value under setting [1] was found to be 58972. In addition, the Z-score under setting [2] is listed as 0.1865.
As for `Cn1ccnc1` [1-Methylimidazole], the “Raw Signal” value under setting [4] is on record as 56921. Under setting [5], this molecule had a Z-score of 0.4247.
On to `O=[N+]([O-])c1ccc(O[C@@H]2O[C@H](CO)[C@@H](O)[C@H](O)[C@H]2F)c([N+](=O)[O-])c1`, for which, under setting [6], the “Raw Signal” value is listed as 50009. Moreover, under setting [8], the Z-score was -1.048.
In the case of `CC(C)OC(=O)C(C)(C)Oc1ccc(C(=O)c2ccc(Cl)cc2)cc1` [Fenofibrate], the “Raw Signal” value under setting [6] amounted to 61843. This molecule also showed a Z-score under setting [7] of 1.356.
As for `O=c1c2ccccc2nc2n1CCc1c-2[nH]c2ccccc12` [Rutaecarpine], the “Raw Signal” value under setting [1] was 54118. This molecule had a Z-score under setting [3] of -0.3703.
As for `CC[C@@H]1C(=O)OC[C@@H]1Cc1cncn1C` [Pilocarpine nitrate], the “Raw Signal” value under setting [4] is 59730. Under setting [5], the Z-score is given as 0.8967.
In the case of `O=C(O)CCCCCCC1C(=O)NC(=O)N1CCC(O)C1CCCCC1` (centres unmarked) [BW 245C], the “Raw Signal” value under setting [6] was determined as 64569. Also, the Z-score under setting [7] was found to be 1.71.
In the case of `O=C(O)[C@@H]1CCN1` [L-azetidine-2-carboxylic acid], the “Raw Signal” value under setting [6] is 54831. Under setting [8], the Z-score was -0.5428.
On to `C[N+](C)(C)CC(=O)O` [Betaine hydrochloride], for which, under setting [4], the “Raw Signal” value is 62144. The molecule further returned a Z-score under setting [5] of 0.7452.
On to `C#CCN1C(C)=C(C(=O)OC)C(c2cccc([N+](=O)[O-])c2)C(C(=O)OCC)=C1C` (centres unmarked) [MRS 1845], for which the “Raw Signal” value under setting [1] was 54765. In addition, the Z-score under setting [2] worked out at 0.06242.
